Columns and labels:
[1] = molecular target: Cyclin-dependent kinase 4 (Homo sapiens, UniProt P11802); assay: Kinase Assay: The CDK4 and CDK1 inhibitory activity of the CDK4/6-FLT3 inhibitors was determined with a filtration kinase assay. The compounds, kinase and substrate diluted in the kinase buffer (20 mM Tris, pH7.4, 50 mM NaCl, 1 mM DTT, 0.1% BSA) were sequentially added to a 96-well Multiscreen HTS filtration plate (Millipore). The final 100 μL reaction mixture in each well contained 0.3 μg of CDK4/Cyclin D1 or CDK1/Cyclin B (Cell Signaling Technology), 1 μg of Rb fragment (aa773-928, Millipore) for the CDK4 assay or 5 μg of histone H1 for the CDK1 assay and 1 μCi of [33P]-ATP. The mixture was incubated at room temperature for 1 hour. The proteins in the reaction were then precipitated and washed with cold TCA solution using an aspiration/filtration vacuum system. The plates were dried at room temperature, and the retained radioactivity was measured by scintillation counting.
[2] = molecular target: T1, Receptor-type tyrosine-protein kinase FLT3 (Homo sapiens, UniProt P36888); assay: Kinase Assay: The FLT3 inhibitory activity of the CDK4/6-FLT3 inhibitors was determined with a HTRF kinase assay. The FLT3 enzyme (GST-FLT3 fusion) was purchased from Carna Biosciences. An ULight-labeled synthetic peptide derived from human Janus kinase 1 (aa1015-1027, ULight-JAK1, PerkinElmer) was utilized as the phosphoacceptor substrate. The assay was conducted in a 384-well white OptiPlate (PerkinElmer). The 20 μL reaction mixture contained 50 nM ULight-JAK1, 116 μM ATP, 0.0385 ng/μL FLT3 and dilutions of test compounds in the kinase buffer (50 mM Hepes, pH 7.6, 1 mM EGTA, 10 mM MgCl2, 2 mM DTT, and 0.005% Tween 20). The reaction was allowed to proceed for 1 hour at room temperature and was stopped by adding 20 μL of 10 mM EDTA, 2 nM LANCE Eu-W1024 anti-phospho-tyrosine antibody in LANCE detection buffer (PerkinElmer). The plates were incubated at room temperature for 2 hours after addition of detection reagents and then read on an Envision multimode reader (PerkinElmer).
T1 sequence (P36888 whole entry): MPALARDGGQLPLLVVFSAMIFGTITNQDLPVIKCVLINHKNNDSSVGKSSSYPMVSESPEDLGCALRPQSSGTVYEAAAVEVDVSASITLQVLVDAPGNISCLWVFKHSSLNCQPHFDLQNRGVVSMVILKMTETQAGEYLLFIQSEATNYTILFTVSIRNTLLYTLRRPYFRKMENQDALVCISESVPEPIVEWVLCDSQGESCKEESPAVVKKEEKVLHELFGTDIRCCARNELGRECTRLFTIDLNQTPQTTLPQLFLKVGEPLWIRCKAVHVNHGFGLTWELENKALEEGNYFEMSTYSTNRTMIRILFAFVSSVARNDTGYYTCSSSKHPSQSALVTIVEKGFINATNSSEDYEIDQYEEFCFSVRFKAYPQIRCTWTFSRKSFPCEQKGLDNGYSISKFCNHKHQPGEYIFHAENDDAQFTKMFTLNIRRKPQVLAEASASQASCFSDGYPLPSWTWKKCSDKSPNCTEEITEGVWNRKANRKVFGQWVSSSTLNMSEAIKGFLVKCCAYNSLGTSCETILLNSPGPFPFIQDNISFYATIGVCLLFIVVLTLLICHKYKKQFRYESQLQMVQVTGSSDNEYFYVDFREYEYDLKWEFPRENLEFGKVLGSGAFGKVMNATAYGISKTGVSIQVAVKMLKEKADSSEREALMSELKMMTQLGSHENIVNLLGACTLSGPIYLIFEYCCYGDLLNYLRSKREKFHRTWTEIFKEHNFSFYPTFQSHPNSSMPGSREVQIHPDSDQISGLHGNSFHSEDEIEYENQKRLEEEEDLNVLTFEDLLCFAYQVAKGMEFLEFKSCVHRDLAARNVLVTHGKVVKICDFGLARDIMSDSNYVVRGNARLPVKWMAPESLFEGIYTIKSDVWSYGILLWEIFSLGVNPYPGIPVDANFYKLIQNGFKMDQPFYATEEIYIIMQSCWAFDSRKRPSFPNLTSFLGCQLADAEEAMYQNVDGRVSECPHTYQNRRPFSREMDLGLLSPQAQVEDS

Cyclin-dependent kinase 4, sequence (P11802 whole entry, the tested form may be a part): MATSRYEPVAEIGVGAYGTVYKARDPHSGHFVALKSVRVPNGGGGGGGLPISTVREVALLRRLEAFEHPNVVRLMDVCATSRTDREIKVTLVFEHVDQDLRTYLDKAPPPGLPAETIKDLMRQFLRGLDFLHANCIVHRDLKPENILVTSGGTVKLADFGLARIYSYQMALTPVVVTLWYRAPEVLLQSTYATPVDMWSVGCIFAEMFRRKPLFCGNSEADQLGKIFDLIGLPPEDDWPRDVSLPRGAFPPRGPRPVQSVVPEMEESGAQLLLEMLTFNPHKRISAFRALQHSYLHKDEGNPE

IC50 [1]: 19.2 nM | IC50 [2]: 2.9 nM
SMILES: C[C@H]1CC[C@H](n2c3cnccc3c3cnc(Nc4ccc5c(n4)C(O)CN(CCO)C5)nc32)CC1 (some centres not stated)
